# Calls of active or inactive are those of the source. No cut-off for these calls is given here.
# Tests used:
# [1] = test system: B16-F10; assay: Photodynamic cytotoxicity against mouse B16-F10 cells assessed as inhibition of cell viability incubated for 3 hrs followed by photo-irradiation at 54 J/cm2 measured after 24 hrs by CCK8 assay; assay type: functional, cell-based; settings: B16-F10, light or radiation study
# [2] = test system: HeLa; assay: Induction of ROS production in human HeLa cells preincubated for 2 hrs followed by H2DCFDA probe exposure for 30 mins and subsequent removal of probe with photo-irradiation at 16 J/cm2 by confocal scanning microscopic analysis; assay type: functional, cell-based; settings: dose <= 200.0 nM, time 2.5 hrs
# [3] = test system: HeLa; assay: Antitumor activity against human HeLa cells xenografted in Balb/C nu/nu mouse assessed as reduction in tumor histology at 2.5 umol/kg, iv with photo-irradiation at 30 J/cm2 after 1 hr of compound administration measured after 24 days by H and E staining based analysis; assay type: functional, organism-based; settings: dose 2.5 µmol/kg, time 24.0 day
# [4] = test system: HeLa; assay: Induction of apoptosis in human HeLa cells assessed as necrotic cells at 100 nM incubated for 3 hrs by Annexin V-FITC/PI staining based flow cytometry relative to control; assay type: toxicity, cell-based; settings: 0.1 µM
# [5] = Toxicity in Balb/C nu/nu mouse xenografted with human HeLa cells assessed as increase in body weight at 2.5 umol/kg, iv with photo-irradiation at 30 J/cm2 after 1 hr of compound administration measured for 24 days; assay type: organism-based; settings: in vivo, 576 h, dose 2.5 µmol/kg, time 24 day
# [6] = Cytotoxicity against mouse B16-F10 cells assessed as inhibition of cell viability under dark condition incubated for 27 hrs by CCK8 assay; assay type: toxicity, cell-based
# [7] = test system: HeLa; assay: Induction of apoptosis in human HeLa cells assessed as late apoptotic cells at 25 nM incubated for 3 hrs with photo-irradiation at 54 J/cm2 by Annexin V-FITC/PI staining based flow cytometry relative to control; assay type: functional
# [8] = test system: HeLa; assay: Induction of apoptosis in human HeLa cells assessed as necrotic cells at 12.5 nM incubated for 3 hrs with photo-irradiation at 54 J/cm2 by Annexin V-FITC/PI staining based flow cytometry relative to control; assay type: functional
# [9] = Drug localization in endoplasmic reticulum of human HeLa cells at 5 uM incubated for 30 mins by ER-Tracker Green dye based confocal scanning microscopic analysis; assay type: ADME; settings: 0.5 h
# [10] = Drug distribution in tumor of Balb/C nu/nu mouse xenografted with human HeLa cells at 2.5 umol/kg, iv measured for 1 hr by IVIS imaging analysis; assay type: ADME, organism-based, Neoplasm; settings: in vivo, dose 2.5 µmol/kg
# [11] = Drug concentration in plasma of Balb/C nu/nu mouse xenografted with human HeLa cells at 2.5 umol/kg, iv measured after 24 hr by IVIS imaging analysis; assay type: ADME, organism-based; settings: in vivo, at 2.5 µmol/kg
# [12] = test system: HeLa; assay: Induction of apoptosis in human HeLa cells assessed as necrotic cells at 25 nM incubated for 3 hrs with photo-irradiation at 54 J/cm2 by Annexin V-FITC/PI staining based flow cytometry relative to control; assay type: functional
# [13] = Toxicity in Balb/C nu/nu mouse xenografted with human HeLa cells assessed as change in kidney histology at 2.5 umol/kg, iv with photo-irradiation at 30 J/cm2 after 1 hr of compound administration measured after 24 days by H and E staining based analysis; assay type: organism-based; settings: in vivo, 576 h, dose 2.5 µmol/kg, time 24 day
# [14] = test system: HeLa; assay: Induction of apoptosis in human HeLa cells assessed as viable cells at 100 nM incubated for 3 hrs by Annexin V-FITC/PI staining based flow cytometry relative to control; assay type: toxicity, cell-based; settings: read-out: Activity
# [15] = test system: HUVEC; assay: Photodynamic cytotoxicity against HUVEC cells assessed as inhibition of cell viability incubated for 3 hrs followed by photo-irradiation at 54 J/cm2 measured after 24 hrs by CCK8 assay; assay type: functional, cell-based; settings: Homo sapiens, light or radiation study
# [16] = Drug uptake in human HeLa cells at 5 uM by confocal scanning microscopy; assay type: ADME, cell-based; settings: 3 h, TDE = time-dependent effect
# [17] = test system: HeLa; assay: Photodynamic cytotoxicity against human HeLa cells assessed as inhibition of cell viability incubated for 3 hrs followed by photo-irradiation at 54 J/cm2 measured after 24 hrs by CCK8 assay; assay type: functional, cell-based; settings: light or radiation study
# [18] = test system: HeLa; assay: Induction of apoptosis in human HeLa cells assessed as increase in percentage of apoptosis/necrosis at 25 nM incubated for 3 hrs with photo-irradiation at 54 J/cm2 by Annexin V-FITC/PI staining based flow cytometry relative to control; assay type: functional
# [19] = Drug distribution in heart of Balb/C nu/nu mouse xenografted with human HeLa cells at 2.5 umol/kg, iv measured for 1 hr by IVIS imaging analysis; assay type: ADME, organism-based; settings: in vivo, dose 2.5 µmol/kg
# [20] = test system: HeLa; assay: Induction of apoptosis in human HeLa cells assessed as increase in percentage of apoptosis/necrosis at 50 nM incubated for 3 hrs with photo-irradiation at 54 J/cm2 by Annexin V-FITC/PI staining based flow cytometry relative to control; assay type: functional
# [21] = Drug distribution in heart of Balb/C nu/nu mouse xenografted with human HeLa cells at 2.5 umol/kg, iv measured for 24 hr by IVIS imaging analysis; assay type: ADME, organism-based; settings: in vivo, dose 2.5 µmol/kg
# [22] = Drug distribution in liver of Balb/C nu/nu mouse xenografted with human HeLa cells at 2.5 umol/kg, iv measured for 24 hr by IVIS imaging analysis; assay type: ADME, organism-based; settings: in vivo, dose 2.5 µmol/kg
# [23] = Toxicity in Balb/C nu/nu mouse xenografted with human HeLa cells assessed as change in liver histology at 2.5 umol/kg, iv with photo-irradiation at 30 J/cm2 after 1 hr of compound administration measured after 24 days by H and E staining based analysis; assay type: organism-based; settings: in vivo, 576 h, dose 2.5 µmol/kg, time 24 day
# [24] = Drug distribution in spleen of Balb/C nu/nu mouse xenografted with human HeLa cells at 2.5 umol/kg, iv measured for 1 hr by IVIS imaging analysis; assay type: ADME, organism-based; settings: in vivo, dose 2.5 µmol/kg
# [25] = test system: HeLa; assay: Induction of apoptosis in human HeLa cells assessed as viable cells at 12.5 nM incubated for 3 hrs with photo-irradiation at 54 J/cm2 by Annexin V-FITC/PI staining based flow cytometry relative to control; assay type: functional; settings: light or radiation study, read-out: Activity
# [26] = test system: HeLa; assay: Disruption of lysosomes in human HeLa cells at 50 to 100 nM incubated for 3 hrs with photo-irradiation at 16 J/cm2 by AO staining based confocal scanning microscopy; assay type: functional, cell-based; settings: dose 50-100 nM
# [27] = test system: HeLa; assay: Antitumor activity against human HeLa cells xenografted in Balb/C nu/nu mouse assessed as tumor growth inhibition at 2.5 umol/kg, iv with photo-irradiation at 30 J/cm2 after 1 hr of compound administration measured for 24 days; assay type: functional, organism-based; settings: dose 2.5 µmol/kg, time 24.0 day
# [28] = test system: HepG2; assay: Photodynamic cytotoxicity against human HepG2 cells assessed as inhibition of cell viability incubated for 3 hrs followed by photo-irradiation at 54 J/cm2 measured after 24 hrs by CCK8 assay; assay type: functional, cell-based; settings: HepG2, light or radiation study
# [29] = Cytotoxicity against HUVEC cells assessed as inhibition of cell viability under dark condition incubated for 27 hrs by CCK8 assay; assay type: toxicity, cell-based; settings: human
# [30] = test system: HeLa; assay: Induction of ROS production in human HeLa cells upto 200 nM preincubated for 2 hrs followed by H2DCFDA probe exposure for 30 mins and subsequent removal of probe with photo-irradiation at 16 J/cm2 by confocal scanning microscopic analysis; assay type: functional, cell-based; settings: time 2.5 hrs
# [31] = test system: HeLa; assay: Induction of apoptosis in human HeLa cells assessed as early apoptotic cells at 50 nM incubated for 3 hrs with photo-irradiation at 54 J/cm2 by Annexin V-FITC/PI staining based flow cytometry relative to control; assay type: functional
compound,measurement,setting,value
COc1ccc2c(c1)CCc1c(-c3ccccc3)c3n(c1-2)[B-](F)(F)[N+]1=C(c2ccc(OCC(=O)NCCCN4CCOCC4)cc2)C(I)=C(c2ccccc2)C1=N3,IC50,[1],7.2 nM
same,Activity,[2],Dose-Dependent Effect
same,Activity,[3],Active
same,Activity,[4],1.04%
same,Activity,[5],Non-Toxic
same,IC50 at 27 h,[6],> 50000 nM
same,Activity,[7],12.87%
same,Activity,[8],1.07%
same,Drug uptake,[9],Not Active
same,Drug uptake,[10],Active
same,Drug uptake,[11],1%
same,Activity,[12],3.67%
same,Activity,[13],Non-Toxic
same,viability at 0.1 µM,[14],91.7%
same,IC50,[15],11.9 nM
same,Drug uptake,[16],Tde
same,IC50,[17],2.1 nM
same,Activity,[18],13.1%
same,Drug uptake,[19],Active
same,Activity,[20],41.8%
same,Drug uptake,[21],Not Active
same,Drug uptake,[22],Not Active
same,Activity,[23],Non-Toxic
same,Drug uptake,[24],Active
same,viability at 0.0125 µM,[25],88.1%
same,Activity,[26],Active
same,Activity,[27],Active
same,IC50,[28],6.1 nM
same,IC50 at 27 h,[29],> 50000 nM
same,Activity,[30],Active
same,Activity,[31],58.93%

# — ChEMBL document CHEMBL5338790, “Discovery of Subcellular-Targeted Aza-BODIPY Photosensitizers for Efficient Photodynamic Antitumor Therapy” (J Med Chem, 2023)
